Molecular target: T1, Heat shock factor 1 (HSF1) (Homo sapiens, UniProt Q00613)
T1 sequence (Q00613 15-120 limits assumed): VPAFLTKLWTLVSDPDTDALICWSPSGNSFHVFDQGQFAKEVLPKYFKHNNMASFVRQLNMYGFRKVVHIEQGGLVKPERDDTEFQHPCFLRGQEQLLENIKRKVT
Assay: SPR Kd
Assay type: binding

Kd: 160 nM
Compound: O=C(Nc1ccc(F)cc1)Nc1ccc(Cl)c([N+](=O)[O-])c1 [DTHIB]

Reference: PMC10571035 (Science translational medicine, 2020)
